According to ChEMBL document CHEMBL1138378, “Halogenation of 4-hydroxy-3-methoxybenzyl thiourea TRPV1 agonists showed enhanced antagonism to capsaicin” (Bioorg Med Chem Lett, 2007):

Tests used:
[1] = target: T1, Transient receptor potential cation channel subfamily V member 1 (Rattus norvegicus, UniProt O35433); assay: Displacement of [3H]RTX from rat TRPV1 expressed in CHO cells; format: cell-based
[2] = target: Transient receptor potential cation channel subfamily V member 1 (Rattus norvegicus) (UniProt O35433); assay: (§1) Antagonist activity at rat TRPV1 expressed in CHO cells assessed as inhibition of calcium uptake; format: functional, cell-based; design: concentration or dose not given beside the values; conditions: concentration not given here
Transient receptor potential cation channel subfamily V member 1 (Rattus norvegicus), sequence (O35433 whole entry): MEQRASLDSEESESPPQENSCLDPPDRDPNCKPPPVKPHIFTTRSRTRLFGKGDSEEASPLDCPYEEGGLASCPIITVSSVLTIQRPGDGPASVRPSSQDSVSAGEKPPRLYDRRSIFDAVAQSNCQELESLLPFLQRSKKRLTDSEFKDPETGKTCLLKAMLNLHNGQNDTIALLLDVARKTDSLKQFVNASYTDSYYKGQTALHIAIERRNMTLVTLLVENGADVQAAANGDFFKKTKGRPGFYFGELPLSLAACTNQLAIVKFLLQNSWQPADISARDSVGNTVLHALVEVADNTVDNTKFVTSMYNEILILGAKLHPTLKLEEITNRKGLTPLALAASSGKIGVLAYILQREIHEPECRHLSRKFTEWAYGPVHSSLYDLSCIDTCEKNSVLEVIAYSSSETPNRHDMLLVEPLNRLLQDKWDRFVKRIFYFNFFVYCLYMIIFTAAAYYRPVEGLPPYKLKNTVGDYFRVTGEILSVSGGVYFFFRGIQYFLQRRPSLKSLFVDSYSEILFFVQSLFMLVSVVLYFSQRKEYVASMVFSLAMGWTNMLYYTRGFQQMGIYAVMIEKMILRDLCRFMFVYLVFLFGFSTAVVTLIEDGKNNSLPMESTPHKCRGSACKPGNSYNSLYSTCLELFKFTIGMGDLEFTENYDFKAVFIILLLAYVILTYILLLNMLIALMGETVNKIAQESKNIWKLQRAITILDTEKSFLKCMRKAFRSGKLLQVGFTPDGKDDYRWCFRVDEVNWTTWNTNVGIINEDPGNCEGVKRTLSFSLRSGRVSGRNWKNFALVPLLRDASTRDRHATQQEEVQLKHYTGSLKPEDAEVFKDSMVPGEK

[3] = target: Transient receptor potential cation channel subfamily V member 1 (Rattus norvegicus) (UniProt O35433); assay: Agonist activity at rat TRPV1 expressed in CHO cells assessed as maximal calcium uptake relative to capsaicin; format: functional, cell-based
[4] = target: T1, Transient receptor potential cation channel subfamily V member 1; assay: as §1; format: functional, cell-based
[5] = target: T1, Transient receptor potential cation channel subfamily V member 1; assay: Agonist activity at rat TRPV1 expressed in CHO cells assessed as maximal calcium uptake; format: functional, cell-based

T1 sequence (O35433 whole entry): as above

Row | Ki [1] [nM] | inhibition [2] [%] | Activity [3] [%] | Ki [4] [nM] | SMILES | EC50 [5] [nM]
1 | 79 |  |  | 72.2 | COc1cc(CNC(=S)NC(CCc2ccc(C(C)(C)C)cc2)COC(=O)C(C)(C)C)c(Cl)cc1O (configuration not stated) | 
2 | 36.9 | 81 | 33 |  | COc1cc(CNC(=S)NCc2ccc(C(C)(C)C)cc2)c(Cl)cc1O | 
3 | 140 |  |  | 176 | COc1cc(CNC(=S)NC(CCc2ccc(C)c(C)c2)COC(=O)C(C)(C)C)c(I)cc1O (configuration not stated) | 
4 | 96 |  |  | 310 | COc1cc(CNC(=S)NC(COC(=O)C(C)(C)C)Cc2ccc(C(C)(C)C)cc2)c(I)cc1O (configuration not stated) | 
5 | 143 | 73 | 19 |  | COc1cc(CNC(=S)NC(CCc2ccc(C(C)(C)C)cc2)COC(=O)C(C)(C)C)cc(Br)c1O (configuration not stated) | 
6 | 56 |  |  |  | COc1cc(CNC(=S)NC(CCc2ccc(C)c(C)c2)COC(=O)C(C)(C)C)ccc1O (configuration not stated) | 14.7
7 | 51.6 |  |  | 49 | COc1cc(CNC(=S)NCc2ccc(C(C)(C)C)cc2)cc(Br)c1O | 
8 | 42.1 |  |  | 30.3 | COc1cc(CNC(=S)NCc2ccc(C(C)(C)C)cc2)c(Br)cc1O | 
9 | 28.8 |  |  |  | COc1cc(CNC(=S)NC(COC(=O)C(C)(C)C)Cc2ccc(C(C)(C)C)cc2)cc(Cl)c1O (configuration not stated) | 60
10 | 76 | 92 | 5 |  | COc1cc(CNC(=S)NCc2ccc(C(C)(C)C)cc2)cc(Cl)c1O | 
11 | 214 |  |  | 525 | COc1cc(CNC(=S)NC(CCc2ccc(C(C)(C)C)cc2)COC(=O)C(C)(C)C)cc(I)c1O (configuration not stated) | 
12 | 86 | 16 | 88 |  | COc1cc(CNC(=S)NC(CCc2ccc(C)c(C)c2)COC(=O)C(C)(C)C)cc(Cl)c1O (configuration not stated) | 
13 | 13.3 |  |  | 71 | COc1cc(CNC(=S)NCC(COC(=O)C(C)(C)C)Cc2ccc(C(C)(C)C)cc2)c(I)cc1O (configuration not stated) | 
14 | 232 |  |  | 121 | COc1cc(CNC(=S)NCC(COC(=O)C(C)(C)C)Cc2ccc(C)c(C)c2)cc(I)c1O (configuration not stated) | 
15 | 24.2 | 41 | 63 |  | COc1cc(CNC(=S)NCC(COC(=O)C(C)(C)C)Cc2ccc(C)c(C)c2)c(Cl)cc1O (configuration not stated) | 
16 | 342 |  |  | 176 | COc1cc(CNC(=S)NCc2ccc(C(C)(C)C)cc2)cc(I)c1O | 
17 | 122 | 47 | 44 |  | COc1cc(CNC(=S)NC(CCc2ccc(C(C)(C)C)cc2)COC(=O)C(C)(C)C)cc(Cl)c1O (configuration not stated) | 

Row | Ki [1] [nM] | inhibition [2] [%] | Activity [3] [%] | Ki [4] [nM] | SMILES | EC50 [5] [nM]
18 | 18.9 |  |  | 23.1 | COc1cc(CNC(=S)NCC(COC(=O)C(C)(C)C)Cc2ccc(C)c(C)c2)c(I)cc1O (configuration not stated) | 
19 | 127 |  |  | 115 | COc1cc(CNC(=S)NC(CCc2ccc(C)c(C)c2)COC(=O)C(C)(C)C)cc(I)c1O (configuration not stated) | 
20 | 41.5 | 11 | 94 |  | COc1cc(CNC(=S)NC(COC(=O)C(C)(C)C)Cc2ccc(C(C)(C)C)cc2)c(Cl)cc1O (configuration not stated) | 
21 | 103 | 45 | 60 |  | COc1cc(CNC(=S)NC(CCc2ccc(C)c(C)c2)COC(=O)C(C)(C)C)c(Cl)cc1O (configuration not stated) | 
22 | 39.4 |  |  | 178 | COc1cc(CNC(=S)NC(COC(=O)C(C)(C)C)Cc2ccc(C(C)(C)C)cc2)cc(I)c1O (configuration not stated) | 
23 | 130 |  |  | 156 | COc1cc(CNC(=S)NCc2ccc(C(C)(C)C)cc2)c(I)cc1O | 
24 | 12.2 | 71 | 24 |  | COc1cc(CNC(=S)NCC(COC(=O)C(C)(C)C)Cc2ccc(C(C)(C)C)cc2)c(Cl)cc1O (configuration not stated) | 
25 | 18.8 | 85 | 9 |  | COc1cc(CNC(=S)NCC(COC(=O)C(C)(C)C)Cc2ccc(C(C)(C)C)cc2)cc(Br)c1O (configuration not stated) | 
26 | 79 |  |  | 69 | COc1cc(CNC(=S)NC(CCc2ccc(C(C)(C)C)cc2)COC(=O)C(C)(C)C)c(I)cc1O (configuration not stated) | 
27 | 12.8 |  |  | 55 | COc1cc(CNC(=S)NCC(COC(=O)C(C)(C)C)Cc2ccc(C(C)(C)C)cc2)c(Br)cc1O (configuration not stated) | 
28 | 38.2 | 29 | 57 |  | COc1cc(CNC(=S)NC(COC(=O)C(C)(C)C)Cc2ccc(C(C)(C)C)cc2)cc(Br)c1O (configuration not stated) | 
29 | 19.9 | 91 | 13 |  | COc1cc(CNC(=S)NCC(COC(=O)C(C)(C)C)Cc2ccc(C)c(C)c2)c(Br)cc1O (configuration not stated) | 
30 | 74.9 | 51 | 41 |  | COc1cc(CNC(=S)NC(COC(=O)C(C)(C)C)Cc2ccc(C(C)(C)C)cc2)c(Br)cc1O (configuration not stated) | 
31 | 75 |  |  | 76.1 | COc1cc(CNC(=S)NC(CCc2ccc(C(C)(C)C)cc2)COC(=O)C(C)(C)C)c(Br)cc1O (configuration not stated) | 
32 | 109 | 75 | 13 |  | COc1cc(CNC(=S)NC(CCc2ccc(C)c(C)c2)COC(=O)C(C)(C)C)c(Br)cc1O (configuration not stated) | 
33 | 45 |  |  | 103 | COc1cc(CNC(=S)NCC(COC(=O)C(C)(C)C)Cc2ccc(C(C)(C)C)cc2)cc(I)c1O (configuration not stated) | 

Row | SMILES | Ki [1] [nM] | inhibition [2] [%] | Activity [3] [%] | Ki [4] [nM] | EC50 [5] [nM]
34 | COc1cc(CNC(=S)NC(CCc2ccc(C)c(C)c2)COC(=O)C(C)(C)C)cc(Br)c1O (configuration not stated) | 102 | 59 | 50 |  | 
35 | COc1cc(CNC(=S)NCc2ccc(C(C)(C)C)cc2)ccc1O | 58.6 |  |  |  | 2.5
36 | COc1cc(CNC(=S)NC(CCc2ccc(C(C)(C)C)cc2)COC(=O)C(C)(C)C)ccc1O (configuration not stated) | 36.5 |  |  |  | 21.5
37 | COc1cc(CNC(=S)NCC(COC(=O)C(C)(C)C)Cc2ccc(C)c(C)c2)cc(Br)c1O (configuration not stated) | 33.1 | 70 | 29 |  | 
38 | COc1cc(CNC(=S)NCC(COC(=O)C(C)(C)C)Cc2ccc(C(C)(C)C)cc2)cc(Cl)c1O (configuration not stated) | 21.3 | 37 | 49 |  | 
39 | CCCCCCCCC(=O)NCc1cc(OC)c(O)cc1I | 1320 |  |  | 127 | 
40 | COc1cc(CNC(=S)NCC(COC(=O)C(C)(C)C)Cc2ccc(C)c(C)c2)cc(Cl)c1O (configuration not stated) | 30.9 |  | 93 |  | 
